{
  "source": "paper PMC12533185",
  "about": "(Nature Communications, 2025)",
  "key": {"[1]": {"tested_on": "mechanical loading PTOA mice", "test": "Micro-CT: osteophyte size in PTOA mice", "type": "in vivo, mouse"}, "[2]": {"tested_on": "mechanical loading PTOA mice", "test": "Joint histology", "type": "in vivo, mouse", "settings": "six weeks"}, "[3]": {"tested_on": "mechanical loading PTOA mice", "test": "OARSI score in PTOA mice", "type": "in vivo, mouse"}, "[4]": {"tested_on": "mechanical loading PTOA mice", "test": "Walking speed in PTOA mice", "type": "in vivo, mouse", "settings": "after six weeks, MP 4 mg/kg weekly"}, "Col2α1 mRNA": {"tested_on": "Col2α1 mRNA", "test": "Col2α1 mRNA expression in ATDC5 cells", "type": "cell-based, mouse", "settings": "10 μg/ml recombinant insulin, 7 days"}},
  "data": [
    {"compound": "C[C@H]1C[C@@H]2[C@H]([C@@H](O)C[C@@]3(C)[C@H]2CC[C@]3(O)C(=O)CO)[C@@]2(C)C=CC(=O)C=C12", "note": "[MP, methylprednisolone]", "values": [
      {"measurement": "block of osteophytes formation and ectopic mineralization", "setting": "[1]", "result": "Neither MP nor si-VPN-2 could significantly block osteophytes formation and ectopic mineralization"},
      {"measurement": "joint histology", "setting": "[2]", "result": "large proteoglycan loss and cartilage erosion"},
      {"measurement": "OARSI score relative to MP&si-VPN@HA", "setting": "[3]", "result": 5.67, "unit": "fold"},
      {"measurement": "walking speed, % of initial level", "setting": "[4]", "result": 18.22, "unit": "%"}
    ]},
    {"compound": "insulin: recombinant insulin used to induce chondrogenesis of ATDC5 cells", "values": [
      {"measurement": "increase of Col2α1 expression", "setting": "Col2α1 mRNA", "result": "~ 10 fold"}
    ]}
  ]
}
